In brackets after ≈: the same amount, converted by molar mass.
Experiments:
P. aeruginosa PBP3 = biological target: T1, P. aeruginosa PBP3 (Pseudomonas aeruginosa, UniProt G3XD46); assay: Bocillin-FL fluorescence polarization competition binding assay, P. aeruginosa PBP3; conditions: fluorescence polarization competition binding assay using Bocillin-FL
T1 construct: made in house
Summary of the method: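 Inhibitor competition with Bocillin-FL for P. aeruginosa PBP3 was followed by fluorescence polarization on a Cytation3 (BioTek) reader, using g-factor 0.96, 490 nm excitation and 520 nm emission. The enzyme was at 0.75 μM and the probe at 0.1 μM in Hepes/NaCl/glycerol buffer, 80 μl per well. FP was recorded immediately after probe addition for up to 60 minutes. Potency was expressed as EC50, the concentration that reduces bound probe by 50%.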

N. gonorrhoeae WHO Z = assay: Liquid broth MIC in Fastidious broth; format: cell-based; conditions: Neisseria gonorrhoeae, read-out: Minimum Inhibitory Concentration, N. gonorrhoeae WHO Z
Summary of the method: (§1)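 Mosaic PBP2 producers; colonies from 24 h chocolate agar, saline suspension, OD600. Fastidious broth, 2-fold dilutions, 5×10^5 CFU/mL. ~24 h, 36 °C, 5% CO2; visual MIC, <10% growth cutoff.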

N. gonorrhoeae WHO Q = assay: Liquid broth MIC in Fastidious broth; format: cell-based; conditions: Neisseria gonorrhoeae, read-out: Minimum Inhibitory Concentration, N. gonorrhoeae WHO Q
Summary of the method: as §1

T1 sequence (G3XD46 whole entry): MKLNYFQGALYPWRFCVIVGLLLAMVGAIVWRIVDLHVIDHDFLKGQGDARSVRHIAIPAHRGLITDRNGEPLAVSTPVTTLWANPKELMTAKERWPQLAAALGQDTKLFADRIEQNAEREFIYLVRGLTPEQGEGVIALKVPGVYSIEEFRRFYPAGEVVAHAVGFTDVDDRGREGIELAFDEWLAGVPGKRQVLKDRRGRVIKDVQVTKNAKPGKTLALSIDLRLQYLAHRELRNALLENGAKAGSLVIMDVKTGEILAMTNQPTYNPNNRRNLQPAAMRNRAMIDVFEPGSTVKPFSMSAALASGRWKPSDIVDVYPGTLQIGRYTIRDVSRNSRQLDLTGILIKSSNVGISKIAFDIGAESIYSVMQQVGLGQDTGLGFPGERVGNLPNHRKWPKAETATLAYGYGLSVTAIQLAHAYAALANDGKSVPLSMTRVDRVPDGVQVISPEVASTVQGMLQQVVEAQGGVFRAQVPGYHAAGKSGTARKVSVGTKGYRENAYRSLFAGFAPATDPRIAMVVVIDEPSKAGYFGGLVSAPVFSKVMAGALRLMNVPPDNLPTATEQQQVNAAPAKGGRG

SMILES	P. aeruginosa PBP3 Potency (P. aeruginosa PBP3)	MIC (N. gonorrhoeae WHO Z) [µg/mL]	MIC (N. gonorrhoeae WHO Q) [µg/mL]
CCN1CCN(C(=O)NC(C(=O)N[C@H]2Cc3cccc(C(=O)O)c3OB2O)c2ccc(O)cc2O)C(=O)C1=O (stereo partly drawn) [Example 69, (3R)-3-(2-(2,4-dihydroxyphenyl)-2-(4-ethyl-2,3-dioxopiperazine-1-carboxamido)acetamido)-2-hydroxy-3,4-dihydro-2H-benzo[e][1,2]oxaborinine-8-carboxylic acid]	C (C represents a potency between 10 and 30 μM)	16 to 32 (≈ 29.6 to 59.2 µM)	> 64
NC(=O)c1ccc(C(NC(=O)N2CCN(CCF)C(=O)C2=O)C(=O)N[C@H]2Cc3cccc(C(=O)O)c3OB2O)cc1O (stereo partly drawn) [Example 46, (3R)-3-(2-(4-carbamoyl-3-hydroxyphenyl)-2-(4-(2-fluoroethyl)-2,3-dioxopiperazine-1-carboxamido)acetamido)-2-hydroxy-3,4-dihydro-2H-benzo[e][1,2]oxaborinine-8-carboxylic acid]	D (D represents a potency <10 μM)	16 to 32 (≈ 27.3 to 54.7 µM)	16 to 32 (≈ 27.3 to 54.7 µM)
NCCN1CCN(C(=O)N[C@H](C(=O)N[C@H]2Cc3cccc(C(=O)O)c3OB2O)c2ccc(C(=O)O)cc2)C(=O)C1=O (single isomer, unassigned) [Example 83]	C (C represents a potency between 10 and 30 μM)	> 64	> 64
NCCCN1CCN(C(=O)NC(C(=O)N[C@H]2Cc3cccc(C(=O)O)c3OB2O)c2ccc(C(N)=O)c(O)c2)C(=O)C1=O (stereo partly drawn) [Example 47, (3R)-3-(2-(4-(3-aminopropyl)-2,3-dioxopiperazine-1-carboxamido)-2-(4-carbamoyl-3-hydroxyphenyl)acetamido)-2-hydroxy-3,4-dihydro-2H-benzo[e][1,2]oxaborinine-8-carboxylic acid]	D (D represents a potency <10 μM)	> 64	> 64
CCN1CCN(C(=O)NC(C(=O)N[C@H]2Cc3cccc(C(=O)O)c3OB2O)c2cccc(NC(=O)c3cccnc3)c2)C(=O)C1=O (stereo partly drawn) [Example 97, (3R)-3-(2-(4-ethyl-2,3-dioxopiperazine-1-carboxamido)-2-(3-(nicotinamido)phenyl)acetamido)-2-hydroxy-3,4-dihydro-2H-benzo[e][1,2]oxaborinine-8-carboxylic acid]	D (D represents a potency <10 μM)	> 64	> 64
CCN1CCN(C(=O)N[C@H](C(=O)N[C@H]2Cc3cccc(C(=O)O)c3OB2O)c2cc(O)cc(O)c2)C(=O)C1=O (single isomer, unassigned) [Example 81]	B (B represents a potency between 30 μM and 500 μM inclusive)	16 to 32 (≈ 29.6 to 59.2 µM)	16 to 32 (≈ 29.6 to 59.2 µM)
CCN1CCN(C(=O)NC(C(=O)N[C@H]2Cc3cccc(C(=O)O)c3OB2O)c2cccc(N)c2)C(=O)C1=O (stereo partly drawn) [Example 72, (3R)-3-(2-(3-aminophenyl)-2-(4-ethyl-2,3-dioxopiperazine-1-carboxamido)acetamido)-2-hydroxy-3,4-dihydro-2H-benzo[e][1,2]oxaborinine-8-carboxylic acid]	D (D represents a potency <10 μM)	16 to 32 (≈ 30.6 to 61.1 µM)	16 to 32 (≈ 30.6 to 61.1 µM)
O=C(NC(C(=O)N[C@H]1Cc2ccc(F)c(C(=O)O)c2OB1O)c1ncc(O)cc1F)c1ccnc(F)c1 (stereo partly drawn) [Example 53, (3R)-7-fluoro-3-(2-(3-fluoro-5-hydroxypyridin-2-yl)-2-(2-fluoroisonicotinamido)acetamido)-2-hydroxy-3,4-dihydro-2H-benzo[e][1,2]oxaborinine-8-carboxylic acid]	D (D represents a potency <10 μM)	> 64	> 64
CCN1CCN(C(=O)NC(C(=O)N[C@H]2Cc3cccc(C(=O)O)c3OB2O)c2cc(O)ccc2O)C(=O)C1=O (stereo partly drawn) [Example 77, (3R)-3-(2-(2,5-dihydroxyphenyl)-2-(4-ethyl-2,3-dioxopiperazine-1-carboxamido)acetamido)-2-hydroxy-3,4-dihydro-2H-benzo[e][1,2]oxaborinine-8-carboxylic acid]	B (B represents a potency between 30 μM and 500 μM inclusive)	> 64	> 64
CCN1CCN(C(=O)N[C@H](C(=O)N[C@H]2Cc3cccc(C(=O)O)c3OB2O)c2cc(Cl)c(O)cc2Cl)C(=O)C1=O (single isomer, unassigned) [Example 92]	B (B represents a potency between 30 μM and 500 μM inclusive)	> 64	> 64
CCN1CCN(C(=O)NC(C(=O)N[C@H]2Cc3cccc(C(=O)O)c3OB2O)c2cccc(NS(N)(=O)=O)c2)C(=O)C1=O (stereo partly drawn) [Example 98, (3R)-3-(2-(4-ethyl-2,3-dioxopiperazine-1-carboxamido)-2-(3-(sulfamoylamino)phenyl)acetamido)-2-hydroxy-3,4-dihydro-2H-benzo[e][1,2]oxaborinine-8-carboxylic acid]	D (D represents a potency <10 μM)	16 to 32 (≈ 26.6 to 53.1 µM)	16 to 32 (≈ 26.6 to 53.1 µM)
CCN1CCN(C(=O)NC(C(=O)N[C@H]2Cc3ccc(O[C@@H]4CN[C@H](C(=O)N(C)C)C4)c(C(=O)O)c3OB2O)c2ccccc2)C(=O)C1=O (stereo partly drawn) [Example 59, (3R)-7-(((3S,5S)-5-(dimethylcarbamoyl)pyrrolidin-3-yl)oxy)-3-(2-(4-ethyl-2,3-dioxopiperazine-1-carboxamido)-2-phenylacetamido)-2-hydroxy-3,4-dihydro-2H-benzo[e][1,2]oxaborinine-8-carboxylic acid]		> 64	> 64
CCN1CCN(C(=O)NC(C(=O)N[C@H]2Cc3cccc(C(=O)O)c3OB2O)c2cccc(NS(C)(=O)=O)c2)C(=O)C1=O (stereo partly drawn) [Example 76, (3R)-3-(2-(4-ethyl-2,3-dioxopiperazine-1-carboxamido)-2-(3-(methylsulfonamido)phenyl)acetamido)-2-hydroxy-3,4-dihydro-2H-benzo[e][1,2]oxaborinine-8-carboxylic acid]	D (D represents a potency <10 μM)	> 64	> 64
NCCN1CCN(C(=O)N[C@@H](C(=O)N[C@H]2Cc3cccc(C(=O)O)c3OB2O)c2cc(Cl)c(O)cc2Cl)C(=O)C1=O [Example 90, (R)-3-((R)-2-(4-(2-aminoethyl)-2,3-dioxopiperazine-1-carboxamido)-2-(2,5-dichloro-4-hydroxyphenyl)acetamido)-2-hydroxy-3,4-dihydro-2H-benzo[e][1,2]oxaborinine-8-carboxylic acid]	D (D represents a potency <10 μM)	> 64	> 64
CCN1CCN(C(=O)N[C@@H](C(=O)N[C@H]2Cc3cccc(C(=O)O)c3OB2O)c2cc(Cl)c(O)cc2Cl)C(=O)C1=O (single isomer, unassigned) [Example 91]	D (D represents a potency <10 μM)	16 to 32 (≈ 27 to 53.9 µM)	16 to 32 (≈ 27 to 53.9 µM)
CCN1CCN(C(=O)NC(C(=O)N[C@H]2Cc3cccc(C(=O)O)c3OB2O)c2cc(O)cc(O)c2)C(=O)C1=O (mixture of isomers) [Example 79, (3R)-3-(2-(3,5-dihydroxyphenyl)-2-(4-ethyl-2,3-dioxopiperazine-1-carboxamido)acetamido)-2-hydroxy-3,4-dihydro-2H-benzo[e][1,2]oxaborinine-8-carboxylic acid]	D (D represents a potency <10 μM)	4 to 8	4 to 8
CCN1CCN(C(=O)NC(C(=O)N[C@H]2Cc3cccc(C(=O)O)c3OB2O)c2c(F)cc(O)cc2Cl)C(=O)C1=O (stereo partly drawn) [Example 95, (3R)-3-(2-(2-chloro-6-fluoro-4-hydroxyphenyl)-2-(4-ethyl-2,3-dioxopiperazine-1-carboxamido)acetamido)-2-hydroxy-3,4-dihydro-2H-benzo[e][1,2]oxaborinine-8-carboxylic acid]	D (D represents a potency <10 μM)	16 to 32 (≈ 27.7 to 55.5 µM)	16 to 32 (≈ 27.7 to 55.5 µM)
CCN1CCN(C(=O)NC(C(=O)N[C@H]2Cc3ccc(C=O)c(C(=O)O)c3OB2O)c2csc(N)n2)C(=O)C1=O (stereo partly drawn) [Example 57, (3R)-3-(2-(2-aminothiazol-4-yl)-2-(4-ethyl-2,3-dioxopiperazine-1-carboxamido)acetamido)-7-formyl-2-hydroxy-3,4-dihydro-2H-benzo[e][1,2]oxaborinine-8-carboxylic acid]	C (C represents a potency between 10 and 30 μM)	> 64	> 64
NCCN1CCN(C(=O)NC(C(=O)N[C@H]2Cc3cccc(C(=O)O)c3OB2O)c2c(F)cc(O)cc2Cl)C(=O)C1=O (stereo partly drawn) [Example 94, (3R)-3-(2-(4-(2-aminoethyl)-2,3-dioxopiperazine-1-carboxamido)-2-(2-chloro-6-fluoro-4-hydroxyphenyl)acetamido)-2-hydroxy-3,4-dihydro-2H-benzo[e][1,2]oxaborinine-8-carboxylic acid]		> 64	> 64
CCN1CCN(C(=O)NC(C(=O)N[C@H]2Cc3ccc(F)c(C(=O)O)c3OB2O)c2nc(N)sc2F)C(=O)C1=O (stereo partly drawn) [Example 18, (3R)-3-(2-(2-amino-5-fluorothiazol-4-yl)-2-(4-ethyl-2,3-dioxopiperazine-1-carboxamido)acetamido)-7-fluoro-2-hydroxy-3,4-dihydro-2H-benzo[e][1,2]oxaborinine-8-carboxylic acid]	D (D represents a potency <10 μM)	4 to 8 (≈ 7.06 to 14.1 µM)	
